{
  "source": "ChEMBL document CHEMBL6096698",
  "about": "“Discovery of a Selective and Orally Bioavailable RET Degrader with Effectiveness in Various Mutations” (J Med Chem, 2025)",
  "key": {"[1]": {"assay": "Induction of apoptosis in mouse BaF3 cells stably expressing KIF5B-RET G810C mutant assessed as apoptotic cells at 40 nM incubated for 48 hrs by Annexin V-FITC/PI staining based flow cytometry (reference value: 6.7 %)", "type": "functional"}, "[2]": {"assay": "Induction of apoptosis in mouse BaF3 cells stably expressing KIF5B-RET G810C mutant assessed as viable cells at 40 nM incubated for 48 hrs by Annexin V-FITC/PI staining based flow cytometry (reference value: 92.21 %)", "type": "functional", "conditions": "read-out: Activity"}, "[3]": {"assay": "Cytotoxicity against human HEK293 cells", "type": "toxicity, cell-based"}, "[4]": {"assay": "Induction of apoptosis in mouse BaF3 cells stably expressing KIF5B-RET G810C mutant assessed as viable cells at 10 nM incubated for 48 hrs by Annexin V-FITC/PI staining based flow cytometry (reference value: 92.21 %)", "type": "functional", "conditions": "read-out: Activity"}, "[5]": {"system": "BaF3", "assay": "Antitumor activity against mouse BaF3 cells stably expressing KIF5B-RET G810C mutant implanted in BALB/c nu/nu mouse at 10 mg/kg, po bid treated for 10 days relative to control", "type": "functional", "conditions": "BaF3, 240 h, time 10 day, read-out: TGI"}, "[6]": {"assay": "Induction of apoptosis in mouse BaF3 cells stably expressing KIF5B-RET G810C mutant assessed as early apoptotic cells at 10 nM incubated for 48 hrs by Annexin V-FITC/PI staining based flow cytometry (reference value: 0.86 %)", "type": "functional"}, "[7]": {"assay": "PROTAC activity at CRBN/KIF5B-RET (unknown origin) expressed in mouse BaF3 cells assessed as induction of RET degradation incubated for 24 hrs by immunoblot analysis", "type": "cell-based", "conditions": "BaF3, 24 h"}, "[8]": {"assay": "Induction of apoptosis in mouse BaF3 cells stably expressing KIF5B-RET G810C mutant assessed as early apoptotic cells at 20 nM incubated for 48 hrs by Annexin V-FITC/PI staining based flow cytometry (reference value: 0.86 %)", "type": "functional"}, "[9]": {"system": "BaF3", "assay": "PROTAC activity at CRBN/KIF5B-RET (unknown origin) expressed in mouse BaF3 cells assessed as induction of RET degradation at 1 to 100 nM incubated for 24 hrs by immunoblot analysis relative to control", "type": "cell-based", "conditions": "dose 1-100 nM"}, "[10]": {"assay": "PROTAC activity at CRBN/KIF5B-RET G810C mutant (unknown origin) expressed in mouse BaF3 cells assessed as induction of RET G810C mutant degradation incubated for 24 hrs by immunoblot analysis", "type": "cell-based", "conditions": "BaF3, 24 h"}, "[11]": {"system": "BaF3", "assay": "Antiproliferative activity against mouse BaF3 cells stably expressing KIF5B-RET incubated for 72 hrs by CCK8 assay", "type": "functional, cell-based", "conditions": "BaF3, 72 h"}, "[12]": {"system": "MCF7", "assay": "Cytotoxicity against human MCF7 cells", "type": "functional, cell-based"}, "[13]": {"assay": "Induction of apoptosis in mouse BaF3 cells stably expressing KIF5B-RET G810C mutant assessed as necrotic cells at 20 nM incubated for 48 hrs by Annexin V-FITC/PI staining based flow cytometry (reference value: 0.94 %)", "type": "functional"}, "[14]": {"assay": "Induction of apoptosis in mouse BaF3 cells stably expressing KIF5B-RET G810C mutant assessed as late apoptotic cells at 20 nM incubated for 48 hrs by Annexin V-FITC/PI staining based flow cytometry (reference value: 5.99 %)", "type": "functional"}, "[15]": {"system": "BaF3", "assay": "PROTAC activity at CRBN/KIF5B-RET (unknown origin) expressed in mouse BaF3 cells assessed as induction of RET degradation at 10 nM incubated for 24 hrs by immunoblot analysis relative to control", "type": "cell-based"}, "[16]": {"system": "Kinesin-1 heavy chain/ Tyrosine-protein kinase receptor RET (Homo sapiens), P07949+P33176 [G810C]", "assay": "In vivo PROTAC activity at CRBN/KIF5B-RET G810C mutant (unknown origin) expressed in mouse BaF3 cells implanted in BALB/c nu/nu mouse assessed as induction of RET G810C mutant degradation at 10 mg/kg, po qd treated for 10 days by Western blot analysis", "type": "functional, organism-based", "conditions": "time 10.0 day"}, "[17]": {"assay": "Toxicity in BALB/c nu/nu mouse implanted with mouse BaF3 cells stably expressing KIF5B-RET G810C mutant assessed as body weight loss at 10 mg/kg, po qd treated for 10 days", "type": "organism-based", "conditions": "in vivo, 240 h, time 10 day"}, "[18]": {"biological_target": "Proto-oncogene tyrosine-protein kinase receptor Ret (Homo sapiens, UniProt P07949)", "sequence (P07949 whole entry)": "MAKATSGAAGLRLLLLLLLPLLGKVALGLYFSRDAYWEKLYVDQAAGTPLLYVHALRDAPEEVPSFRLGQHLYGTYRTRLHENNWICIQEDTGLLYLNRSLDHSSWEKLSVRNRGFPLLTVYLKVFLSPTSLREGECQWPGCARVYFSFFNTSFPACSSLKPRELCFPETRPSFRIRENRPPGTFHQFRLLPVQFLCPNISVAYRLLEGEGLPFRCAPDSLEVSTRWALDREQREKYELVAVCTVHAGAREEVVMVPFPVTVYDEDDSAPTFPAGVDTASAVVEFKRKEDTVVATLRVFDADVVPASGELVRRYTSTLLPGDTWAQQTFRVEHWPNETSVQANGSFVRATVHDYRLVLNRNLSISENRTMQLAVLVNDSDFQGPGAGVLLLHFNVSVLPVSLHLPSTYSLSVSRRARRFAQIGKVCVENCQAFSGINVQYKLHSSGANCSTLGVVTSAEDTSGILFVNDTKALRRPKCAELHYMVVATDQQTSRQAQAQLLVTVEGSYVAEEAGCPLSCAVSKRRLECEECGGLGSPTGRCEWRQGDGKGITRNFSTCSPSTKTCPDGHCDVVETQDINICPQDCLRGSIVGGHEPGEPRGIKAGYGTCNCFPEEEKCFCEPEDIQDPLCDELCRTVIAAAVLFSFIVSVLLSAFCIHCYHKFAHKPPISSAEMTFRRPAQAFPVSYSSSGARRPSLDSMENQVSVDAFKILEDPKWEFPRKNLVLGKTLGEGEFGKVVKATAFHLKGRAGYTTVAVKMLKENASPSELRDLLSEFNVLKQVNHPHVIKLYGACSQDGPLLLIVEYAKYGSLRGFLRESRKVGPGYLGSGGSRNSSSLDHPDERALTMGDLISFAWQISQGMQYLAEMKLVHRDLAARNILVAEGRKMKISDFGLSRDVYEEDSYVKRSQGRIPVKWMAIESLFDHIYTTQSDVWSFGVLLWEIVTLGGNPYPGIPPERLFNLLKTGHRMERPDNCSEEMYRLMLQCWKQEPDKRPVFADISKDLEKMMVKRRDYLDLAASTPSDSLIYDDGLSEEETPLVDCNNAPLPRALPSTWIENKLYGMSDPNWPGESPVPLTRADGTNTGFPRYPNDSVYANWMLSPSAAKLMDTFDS", "assay": "Inhibition of RET (unknown origin) at 10 nM by kinase profiling analysis relative to control"}, "[19]": {"system": "BaF3", "assay": "PROTAC activity at CRBN/KIF5B-RET (unknown origin) expressed in mouse BaF3 cells assessed as induction of RET degradation at 10 nM incubated for 24 hrs in presence of MLN4924 by immunoblot analysis", "type": "cell-based"}, "[20]": {"assay": "Induction of apoptosis in mouse BaF3 cells stably expressing KIF5B-RET G810C mutant assessed as apoptotic cells at 20 nM incubated for 48 hrs by Annexin V-FITC/PI staining based flow cytometry (reference value: 6.7 %)", "type": "functional"}, "[21]": {"assay": "Oral bioavailability in Sprague-Dawley rat at 10 mg/kg measured for 24 hrs by LC-MS/MS analysis", "type": "ADME, organism-based", "conditions": "in vivo"}, "[22]": {"assay": "Tmax in Sprague-Dawley rat at 1 mg/kg, iv measured for 24 hrs by LC-MS/MS analysis", "type": "ADME, organism-based", "conditions": "in vivo"}, "[23]": {"system": "HL-60", "assay": "Cytotoxicity against human HL-60 cells", "type": "functional, cell-based"}, "[24]": {"system": "BaF3", "assay": "Antiproliferative activity against mouse BaF3 cells stably expressing CCDC6-RET G810R mutant incubated for 72 hrs by CCK8 assay", "type": "functional, cell-based", "conditions": "BaF3, 72 h"}},
  "note": "The source made the active and inactive calls. No cut-off for these calls is given here.",
  "data": [
    {"smiles": "COc1ccc(CN2C3CC2CN(c2ccc(-c4cc(N5CCC(N6CCN(CCCC#Cc7cccc8c7CN(C7CCC(=O)NC7=O)C8=O)CC6)CC5)cn5ncc(C#N)c45)cn2)C3)cn1", "note": "(centres undefined)", "values": [
      {"measurement": "Activity", "setting": "[1]", "value": 71.3, "unit": "%"},
      {"measurement": "viability at 0.04 µM", "setting": "[2]", "value": 27.9, "unit": "%"},
      {"measurement": "IC50", "setting": "[3]", "value": "> 5000", "unit": "nM"},
      {"measurement": "viability at 0.01 µM", "setting": "[4]", "value": 64.3, "unit": "%"},
      {"measurement": "inhibition in vivo at 10 mg/kg", "setting": "[5]", "value": 85.1, "unit": "%"},
      {"measurement": "Activity", "setting": "[6]", "value": 18.33, "unit": "%"},
      {"measurement": "DC50", "setting": "[7]", "value": 5.6, "unit": "nM"},
      {"measurement": "Activity", "setting": "[8]", "value": 38.21, "unit": "%"},
      {"measurement": "Emax", "setting": "[9]", "value": 92, "unit": "%"},
      {"measurement": "DC50", "setting": "[10]", "value": 11.7, "unit": "nM"},
      {"measurement": "IC50", "setting": "[11]", "value": 2.6, "unit": "nM"},
      {"measurement": "IC50", "setting": "[12]", "value": "> 5000", "unit": "nM"},
      {"measurement": "Activity", "setting": "[13]", "value": 1.01, "unit": "%"},
      {"measurement": "Activity", "setting": "[14]", "value": 17.41, "unit": "%"},
      {"measurement": "Activity", "setting": "[15]", "value": 65, "unit": "%"},
      {"measurement": "Activity", "setting": "[16]", "value": "Active"},
      {"measurement": "Activity", "setting": "[17]", "value": "Non-toxic"},
      {"measurement": "inhibition", "setting": "[18]", "value": "> 50", "unit": "%"},
      {"measurement": "Activity", "setting": "[19]", "value": "inactive"},
      {"measurement": "Activity", "setting": "[20]", "value": 55.4, "unit": "%"},
      {"measurement": "bioavailability", "setting": "[21]", "value": 40.3, "unit": "%"},
      {"measurement": "Tmax", "setting": "[22]", "value": 4.98, "unit": "min"},
      {"measurement": "IC50", "setting": "[23]", "value": "> 5000", "unit": "nM"},
      {"measurement": "IC50", "setting": "[24]", "value": 122, "unit": "nM"}
    ]}
  ]
}
